Results from publication PMC6983109, “Efficient Synthesis of Purine Nucleoside Analogs by a New Trimeric Purine Nucleoside Phosphorylase from Aneurinibacillus migulanus AM007” (Molecules, 2019).

Key:
AmPNP = target: T1, AmPNP (Aneurinibacillus migulanus, UniProt A0A3G5E8S8); assay: phosphorolysis, HPLC; type: biochemical; conditions: 10 mM sodium phosphate buffer pH 8.0 (phosphate co-substrate), 50 °C, 0.5–5 mM substrate
T1 construct: full-length ORF 813 bp, 270 residues; N-terminal 6*His tag (pET-28a(+), Nhe I/BamH I), E. coli BL21(DE3), Ni2+ purified; subunit ~29 kDa, native ~87 kDa, trimer
Source text: phosphorolysis, HPLC on AmPNP

[1] = target: purine nucleoside phosphorylase from Aneurinibacillus migulanus AM007 (Aneurinibacillus migulanus AM007); assay: SEC; Superdex 200 Increase 10/300 GL on an AKTA pure system, against standard proteins; 0.01 M phosphate buffer, 0.14 M NaCl, pH 8.0; AmPNP at 2 mg/mL; 0.3 mL/min; native mass about 87 kDa compared with about 29 kDa subunit on SDS-PAGE

stoichiometry N [1] | Molecule | Km (AmPNP)
– | Nc1ncnc2c1ncn2[C@@H]1O[C@H](CO)[C@@H](O)[C@H]1O [Adenosine] | 1.45 mM
– | Nc1nc2c(ncn2[C@@H]2O[C@H](CO)[C@@H](O)[C@H]2O)c(=O)[nH]1 [Guanosine] | 1.16 mM
– | OC[C@H]1O[C@@H](n2cnc3c(O)ncnc32)[C@H](O)[C@@H]1O [Inosine] | 5.3 mM
3 | purine nucleoside phosphorylase from Aneurinibacillus migulanus AM007 (enzyme) | –
